Measured values: the NIST ThermoML archive (doi:10.1016/j.fluid.2018.07.028)
± gives the expanded uncertainty stated by the source.

Experiment: activity coefficient (dimensionless); of the first substance listed, at infinite dilution; xn = mol fraction of the nth substance listed
Details: 101.33 kPa, Liquid, Chromatography, x1 = 0

Compound: CCC(=O)CC [pentan-3-one] + CCCC[P+](CCCC)(CCCC)CCCC.O=S(=O)([N-]S(=O)(=O)C(F)(F)F)C(F)(F)F
- activity coefficient (358.15 K): 0.629 ± 0.043
- activity coefficient (368.15 K): 0.66 ± 0.045
- activity coefficient (378.15 K): 0.69 ± 0.05
- activity coefficient (388.15 K): 0.721 ± 0.048
- activity coefficient (398.15 K): 0.75 ± 0.049
- activity coefficient (408.15 K): 0.781 ± 0.051

Compound: CCCCC [pentane] + CCCC[P+](CCCC)(CCCC)CCCC.O=S(=O)([N-]S(=O)(=O)C(F)(F)F)C(F)(F)F
- activity coefficient (358.15 K): 3.61 ± 0.25
- activity coefficient (368.15 K): 3.62 ± 0.25
- activity coefficient (378.15 K): 3.65 ± 0.25
- activity coefficient (388.15 K): 3.66 ± 0.25
- activity coefficient (398.15 K): 3.68 ± 0.25
- activity coefficient (408.15 K): 3.7 ± 0.25

Compound: CCCO [propan-1-ol] + CCCC[P+](CCCC)(CCCC)CCCC.O=S(=O)([N-]S(=O)(=O)C(F)(F)F)C(F)(F)F
- activity coefficient (358.15 K): 1.53 ± 0.1
- activity coefficient (368.15 K): 1.47 ± 0.1
- activity coefficient (378.15 K): 1.42 ± 0.09
- activity coefficient (388.15 K): 1.37 ± 0.09
- activity coefficient (398.15 K): 1.32 ± 0.09
- activity coefficient (408.15 K): 1.28 ± 0.08

Compound: CC(C)O [propan-2-ol] + CCCC[P+](CCCC)(CCCC)CCCC.O=S(=O)([N-]S(=O)(=O)C(F)(F)F)C(F)(F)F
- activity coefficient (358.15 K): 1.47 ± 0.1
- activity coefficient (368.15 K): 1.42 ± 0.09
- activity coefficient (378.15 K): 1.37 ± 0.09
- activity coefficient (388.15 K): 1.33 ± 0.09
- activity coefficient (398.15 K): 1.29 ± 0.08
- activity coefficient (408.15 K): 1.26 ± 0.08

Compound: CCCc1ccccc1 [propylbenzene] + CCCC[P+](CCCC)(CCCC)CCCC.O=S(=O)([N-]S(=O)(=O)C(F)(F)F)C(F)(F)F
- activity coefficient (358.15 K): 1.88 ± 0.13
- activity coefficient (368.15 K): 1.93 ± 0.13
- activity coefficient (378.15 K): 1.98 ± 0.13
- activity coefficient (388.15 K): 2.03 ± 0.14
- activity coefficient (398.15 K): 2.07 ± 0.14
- activity coefficient (408.15 K): 2.12 ± 0.14

Compound: C=Cc1ccccc1 [styrene] + CCCC[P+](CCCC)(CCCC)CCCC.O=S(=O)([N-]S(=O)(=O)C(F)(F)F)C(F)(F)F
- activity coefficient (358.15 K): 1.01 ± 0.06
- activity coefficient (368.15 K): 1.05 ± 0.07
- activity coefficient (378.15 K): 1.1 ± 0.07
- activity coefficient (388.15 K): 1.14 ± 0.07
- activity coefficient (398.15 K): 1.18 ± 0.08
- activity coefficient (408.15 K): 1.23 ± 0.08

Compound: C1CCOC1 [tetrahydrofuran] + CCCC[P+](CCCC)(CCCC)CCCC.O=S(=O)([N-]S(=O)(=O)C(F)(F)F)C(F)(F)F
- activity coefficient (358.15 K): 0.622 ± 0.043
- activity coefficient (368.15 K): 0.653 ± 0.045
- activity coefficient (378.15 K): 0.682 ± 0.046
- activity coefficient (388.15 K): 0.712 ± 0.047
- activity coefficient (398.15 K): 0.742 ± 0.049
- activity coefficient (408.15 K): 0.772 ± 0.05

Compound: c1ccsc1 [thiophene] + CCCC[P+](CCCC)(CCCC)CCCC.O=S(=O)([N-]S(=O)(=O)C(F)(F)F)C(F)(F)F
- activity coefficient (358.15 K): 0.782 ± 0.051
- activity coefficient (368.15 K): 0.812 ± 0.053
- activity coefficient (378.15 K): 0.842 ± 0.054
- activity coefficient (388.15 K): 0.872 ± 0.056
- activity coefficient (398.15 K): 0.9 ± 0.057
- activity coefficient (408.15 K): 0.929 ± 0.059

Compound: Cc1ccccc1 [toluene] + CCCC[P+](CCCC)(CCCC)CCCC.O=S(=O)([N-]S(=O)(=O)C(F)(F)F)C(F)(F)F
- activity coefficient (358.15 K): 1.11 ± 0.07
- activity coefficient (368.15 K): 1.16 ± 0.07
- activity coefficient (378.15 K): 1.2 ± 0.08
- activity coefficient (388.15 K): 1.24 ± 0.08
- activity coefficient (398.15 K): 1.28 ± 0.08
- activity coefficient (408.15 K): 1.32 ± 0.09

Compound: C=COC(C)=O [vinyl acetate] + CCCC[P+](CCCC)(CCCC)CCCC.O=S(=O)([N-]S(=O)(=O)C(F)(F)F)C(F)(F)F
- activity coefficient (358.15 K): 0.983 ± 0.062
- activity coefficient (368.15 K): 1.01 ± 0.06
- activity coefficient (378.15 K): 1.04 ± 0.07
- activity coefficient (388.15 K): 1.07 ± 0.07
- activity coefficient (398.15 K): 1.1 ± 0.07
- activity coefficient (408.15 K): 1.13 ± 0.07

Compound: O [water] + CCCC[P+](CCCC)(CCCC)CCCC.O=S(=O)([N-]S(=O)(=O)C(F)(F)F)C(F)(F)F
- activity coefficient (358.15 K): 4.2 ± 0.29
- activity coefficient (368.15 K): 3.85 ± 0.26
- activity coefficient (378.15 K): 3.53 ± 0.24
- activity coefficient (388.15 K): 3.26 ± 0.22
- activity coefficient (398.15 K): 3.02 ± 0.21
- activity coefficient (408.15 K): 2.81 ± 0.19
